Reference: patent US12077503B2, “Substituted cyclic amides and their use as herbicides” (FMC CORPORATION, priority 2015, dated 2024)

Legend:
Type in all cases: in vivo
[1] = tested on: ragweed (common ragweed, Ambrosia elatior); assay: Test A preemergence; details: Ambrosia artemisiifolia, pre-emergence, 240 h
Procedure, shortened: (§1)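 Visual injury scores from 0, no effect, to 100, complete control, were assigned versus untreated controls roughly 10 d after treatment in the greenhouse. Test chemicals, formulated with surfactant in a non-phytotoxic solvent, were applied to planted seeds as a preemergence soil spray or postemergence to one- to two-leaf plants 2 to 10 cm tall, in loam–sand soil.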

[2] = tested on: barnyardgrass (Echinochloa crus-galli); assay: Test A preemergence; details: Echinochloa crus-galli, pre-emergence, 240 h
Procedure, shortened: as §1

[3] = tested on: ryegrass, Italian (Italian ryegrass, Lolium multiflorum); assay: Test A preemergence; details: Lolium multiflorum, pre-emergence, 240 h
Procedure, shortened: as §1

Kochia (Kochia scoparia) [4] = assay: Test A preemergence; details: Bassia scoparia, pre-emergence, 240 h
Procedure, shortened: as §1

[5] = tested on: giant foxtail (Setaria faberii); assay: Test A preemergence; details: Setaria faberi, pre-emergence, 240 h
Procedure, shortened: as §1

[6] = tested on: pigweed (Amaranthus retroflexus); assay: Test A preemergence; details: Amaranthus retroflexus, pre-emergence, 240 h
[7] = tested on: barnyardgrass (Echinochloa crus-galli); assay: Test B flooded paddy test; details: Echinochloa crus-galli, Flood, 250 g ai/ha; scale of 0 to 100 where 0 is no effect and 100 is complete control; read-out: Barnyardgrass plant response rating
Procedure, shortened: (§2)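 Visual ratings (0 none to 100 complete control) are relative to untreated plants, taken 13–15 d after treatment in a greenhouse. Test material went straight into floodwater standing 3 cm above the soil, kept constant, on plants at the 2-leaf stage.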

[8] = tested on: sedge, umbrella (small-flower umbrella sedge, Cyperus difformis); assay: Test B flooded paddy test; details: Cyperus difformis, Flood, 250 g ai/ha; scale of 0 to 100 where 0 is no effect and 100 is complete control; read-out: Sedge, Umbrella plant response rating
Procedure, shortened: as §2

[9] = tested on: ducksalad (Heteranthera limosa); assay: Test B flooded paddy test; details: Heteranthera limosa, Flood, 250 g ai/ha; scale of 0 to 100 where 0 is no effect and 100 is complete control; read-out: Ducksalad plant response rating
Procedure, shortened: as §2

rice (Oryra sativa) = assay: Test B flooded paddy test; details: Oryza sativa, Flood, 250 g ai/ha; scale of 0 to 100 where 0 is no effect and 100 is complete control; read-out: Rice plant response rating
Procedure, shortened: as §2

[10] = tested on: Galium (catchweed bedstraw, Galium aparine); assay: Test A postemergence; details: Galium, post-emergence, 240 h, 125 g ai/ha, Postemergence; visual injury after approximately 10 d; 0 to 100 scale where 0 is no effect and 100 is complete control; read-out: Plant response rating, Galium
Procedure, shortened: as §1

[11] = tested on: ragweed (common ragweed, Ambrosia elatior); assay: Test A postemergence; details: Ambrosia artemisiifolia, post-emergence, 240 h, 125 g ai/ha, Postemergence; visual injury after approximately 10 d; 0 to 100 scale where 0 is no effect and 100 is complete control; read-out: Plant response rating, Ragweed
Procedure, shortened: as §1

[12] = tested on: barnyardgrass (Echinochloa crus-galli); assay: Test A postemergence; details: Echinochloa crus-galli, post-emergence, 240 h, 125 g ai/ha, Postemergence; visual injury after approximately 10 d; 0 to 100 scale where 0 is no effect and 100 is complete control; read-out: Plant response rating, Barnyardgrass
Procedure, shortened: as §1

[13] = tested on: ryegrass, Italian (Italian ryegrass, Lolium multiflorum); assay: Test A postemergence; details: Lolium multiflorum, post-emergence, 240 h, 125 g ai/ha, Postemergence; visual injury after approximately 10 d; 0 to 100 scale where 0 is no effect and 100 is complete control; read-out: Plant response rating, Ryegrass, Italian
Procedure, shortened: as §1

Kochia (Kochia scoparia) [14] = assay: Test A postemergence; details: Bassia scoparia, post-emergence, 240 h, 125 g ai/ha, Postemergence; visual injury after approximately 10 d; 0 to 100 scale where 0 is no effect and 100 is complete control; read-out: Plant response rating, Kochia
Procedure, shortened: as §1

[15] = tested on: wheat (Triticum aestivum); assay: Test A postemergence; details: Triticum aestivum, post-emergence, 240 h, 125 g ai/ha, Postemergence; visual injury after approximately 10 d; 0 to 100 scale where 0 is no effect and 100 is complete control; read-out: Plant response rating, Wheat
Procedure, shortened: as §1

[16] = tested on: blackgrass (Alopecurus myosuroides); assay: Test A postemergence; details: Alopecurus myosuroides, post-emergence, 240 h, 125 g ai/ha, Postemergence; visual injury after approximately 10 d; 0 to 100 scale where 0 is no effect and 100 is complete control; read-out: Plant response rating, Blackgrass
Procedure, shortened: as §1

[17] = tested on: giant foxtail (Setaria faberii); assay: Test A postemergence; details: Setaria faberi, post-emergence, 240 h, 125 g ai/ha, Postemergence; visual injury after approximately 10 d; 0 to 100 scale where 0 is no effect and 100 is complete control; read-out: Plant response rating, Foxtail, Giant
Procedure, shortened: as §1

corn (Zea mays) = assay: Test A postemergence; details: Zea mays, post-emergence, 240 h, 125 g ai/ha, Postemergence; visual injury after approximately 10 d; 0 to 100 scale where 0 is no effect and 100 is complete control
Procedure, shortened: as §1

[18] = tested on: pigweed (Amaranthus retroflexus); assay: Test A postemergence; details: Amaranthus retroflexus, post-emergence, 240 h, 125 g ai/ha, Postemergence; visual injury after approximately 10 d; 0 to 100 scale where 0 is no effect and 100 is complete control; read-out: Plant response rating, Pigweed
Procedure, shortened: as §1

SMILES: CN1C[C@H](c2ccc(C(F)(F)F)cc2)[C@@H](C(=O)Nc2ccccc2Br)C1=O [Compound 943]
- pest or weed control at 125 g/ha ([1]; 125 g ai/ha, Preemergence, visual injury rating after approximately 10 d, read-out: Ragweed plant response rating (0 to 100 scale, 0 is no effect, 100 is complete control)): 0%
- pest or weed control at 500 g/ha ([1]; 500 g ai/ha, preemergence, visual injury rating about 10 d after treatment, 0 to 100 scale (0 no effect, 100 complete control), read-out: Ragweed plant response rating): 30%
- pest or weed control at 125 g/ha ([2]; 125 g ai/ha, Preemergence, visual injury rating after approximately 10 d, read-out: Barnyardgrass plant response rating (0 to 100 scale, 0 is no effect, 100 is complete control)): 90%
- pest or weed control at 500 g/ha ([2]; 500 g ai/ha, preemergence, visual injury rating about 10 d after treatment, 0 to 100 scale (0 no effect, 100 complete control), read-out: Barnyardgrass plant response rating): 90%
- pest or weed control at 125 g/ha ([3]; 125 g ai/ha, Preemergence, visual injury rating after approximately 10 d, read-out: Ryegrass, Italian plant response rating (0 to 100 scale, 0 is no effect, 100 is complete control)): 0%
- pest or weed control at 500 g/ha ([3]; 500 g ai/ha, preemergence, visual injury rating about 10 d after treatment, 0 to 100 scale (0 no effect, 100 complete control), read-out: Ryegrass, Italian plant response rating): 50%
- pest or weed control at 125 g/ha (Kochia (Kochia scoparia) [4]; 125 g ai/ha, Preemergence, visual injury rating after approximately 10 d, read-out: Kochia plant response rating (0 to 100 scale, 0 is no effect, 100 is complete control)): 70%
- pest or weed control at 500 g/ha (Kochia (Kochia scoparia) [4]; 500 g ai/ha, preemergence, visual injury rating about 10 d after treatment, 0 to 100 scale (0 no effect, 100 complete control), read-out: Kochia plant response rating): 80%
- pest or weed control at 125 g/ha ([5]; 125 g ai/ha, Preemergence, visual injury rating after approximately 10 d, read-out: Foxtail, Giant plant response rating (0 to 100 scale, 0 is no effect, 100 is complete control)): 90%
- pest or weed control at 500 g/ha ([5]; 500 g ai/ha, preemergence, visual injury rating about 10 d after treatment, 0 to 100 scale (0 no effect, 100 complete control), read-out: Foxtail, Giant plant response rating): 90%
- pest or weed control at 125 g/ha ([6]; 125 g ai/ha, Preemergence, visual injury rating after approximately 10 d, read-out: Pigweed plant response rating (0 to 100 scale, 0 is no effect, 100 is complete control)): 40%
- pest or weed control at 500 g/ha ([6]; 500 g ai/ha, preemergence, visual injury rating about 10 d after treatment, 0 to 100 scale (0 no effect, 100 complete control), read-out: Pigweed plant response rating): 50%
- pest or weed control at 250 g/ha [7]: 0%
- pest or weed control at 250 g/ha [8]: 0%
- pest or weed control at 250 g/ha [9]: 50%
- pest or weed control at 250 g/ha (rice (Oryra sativa)): 0%
- pest or weed control at 125 g/ha [10]: 70%
- pest or weed control at 125 g/ha [11]: 0%
- pest or weed control at 125 g/ha [12]: 70%
- pest or weed control at 125 g/ha [13]: 0%
- pest or weed control at 125 g/ha (Kochia (Kochia scoparia) [14]): 30%
- plant injury at 125 g/ha [15]: 0%
- pest or weed control at 125 g/ha [16]: 40%
- pest or weed control at 125 g/ha [17]: 90%
- Corn plant response rating (crop injury, 0 = no effect, 100 = complete kill) at 125 g/ha (corn (Zea mays)): 20%
- pest or weed control at 125 g/ha [18]: 40%
